Source: patent US20240317741A1, “NAPHTHYRIDINE DERIVATIVE AS ATR INHIBITOR AND METHOD FOR PREPARING SAME” (WIGEN BIOMEDICINE TECHNOLOGY (SHANGHAI) CO., LTD., priority 2021, published 2024)

Experiments:
[1] = system: MIA PaCa-2 cells; assay: In-vitro anti-proliferative activity against MIA PaCa-2 cells; type: cell-based; conditions: Homo sapiens, 72 h after dosing, intracellular ATP content
Procedure: (§1) MIA PaCa-2 cells were seeded on a 384-well plate at 3000 cells/well. After overnight adherence culture, DMSO or the compounds serially diluted 1:5 from 5 μM were added. […] The inhibition percentage of viable cells by the compounds was calculated by comparing with the DMSO group, and the IC50 value was calculated.

[2] = system: MIA PaCa-2 cells; assay: In-vitro anti-proliferative activity in combination with gemcitabine against MIA PaCa-2 cells; type: cell-based; conditions: in combination with 20 nM gemcitabine, 72 h after dosing
Procedure: as §1, with “cells/well, and 20 nM gemcitabine was added.” for “cells/well.”, “100 nM” for “5 μM”

[3] = system: Human colon cancer HT29 cells; assay: In vivo efficacy in HT-29 model, alone and with gemcitabine; parameters: species or system nude mouse; conditions: HT-29 model in nude mice, GMC alone 15 mpk QW IP, once a week; day 21
Procedure: After being subcultured, the cells were collected when they reached the desired amount. 1×10^7 HT29 cells were injected into the left dorsal side of each nude mouse, and the animals were randomly grouped for administration after tumors grew to 100-200 mm^3. The groups were as follows: a solvent control group of 6 mice, a single drug group of 15 mg/kg gemcitabine (GMC), and a combination group of 15 mg/kg gemcitabine and a compound. Gemcitabine was administered intraperitoneally with PBS as a vehicle once a week. The compounds were administered 3 days a week and interrupted for 4 days (3 on/4 off), for 21 consecutive days, and the vehicle was a 0.5% MC suspension containing 1% tween-80. On Tuesday and Thursday each week, tumor volumes and body weight of the mice were measured, and the nude mice were sacrificed on day 21 after the administration. […] The toxicity of the compounds was evaluated according to the body weight of the mice.

IC50 [1] [nM]	IC50 [2] [nM]	Structure (SMILES)	TGI(%) [3] [%]
1000 to 5000	–	CSCCC(C#N)c1cc(N2CCOC[C@H]2C)nc2c(-c3ccn[nH]3)nccc12 (stereo partly shown) [Compound 13]	–
< 1000	–	C[C@@H]1COCCN1c1cc(C2(C#N)CCC(OC3CC3)CC2)c2ccnc(-c3ccn[nH]3)c2n1 (stereo partly shown) [Compound 57]	–
< 1000	–	C[C@@H]1COCCN1c1cc(C2(C#N)CCN(c3ccccc3F)CC2)c2ccnc(-c3ccn[nH]3)c2n1 [Compound 49]	–
< 1000	0.661	C[C@@H]1COCCN1c1cc(C2(C#N)CCC(N3CCCC3)CC2)c2ccnc(-c3ccn[nH]3)c2n1 (stereo partly shown) [Compound 35]	–
< 1000	–	C[C@@H]1COCCN1c1cc(C2(C#N)CC3CCC(C2)O3)c2ccnc(-c3ccn[nH]3)c2n1 (stereo partly drawn) [Compound 85, 3-(2-((R)-3-methylmorpholino)-8-(1H-pyrazol-5-yl)-1,7-naphthyridin-4-yl)-8-oxabicyclo[3.2.1]octane-3-carbonitrile]	–
1000 to 5000	–	C[C@@H]1COCCN1c1cc(C(C#N)C2CCN(C)CC2)c2ccnc(-c3ccn[nH]3)c2n1 (stereo partly shown) [Compound 24]	–
–	–	Nc1ccn([C@@H]2O[C@H](CO)[C@@H](O)C2(F)F)c(=O)n1 [GMC, gemcitabine, reference compound]	50.7

Structure (SMILES)	IC50 [1] [nM]	IC50 [2] [nM]	TGI(%) [3] [%]
C[C@@H]1COCCN1c1cc(C2(C#N)CCN(CCS(C)(=O)=O)CC2)c2ccnc(-c3ccn[nH]3)c2n1 [Compound 80]	< 1000	–	–
C[C@@H]1COCCN1c1cc(C2(C#N)CCN(CC(F)(F)F)CC2)c2ccnc(-c3ccn[nH]3)c2n1 [Compound 41, (R)-4-(2-(3-methylmorpholino)-8-(1H-pyrazol-5-yl)-1,7-naphthyridin-4-yl)-1-(2,2,2-trifluoroethyl)piperidine-4-carbonitrile]	< 1000	–	–
